{"source": "patent US20050220810A1", "about": "“Anti-aging preparation” (Shiseido Company, Ltd., priority 2002, published 2005)", "origin": "cited, not measured here", "tested_on": "vascular endothelial cell HMVEC", "conditions": "general statement on positive controls of TSP-1 induction; no test described"}
{"substance": "bFGF: fibroblast growth factor, a positive control of the TSP-1 inducing substance", "values": [{"measurement": "induction of cell death in vascular endothelial cells", "result": "does not induce cell death"}]}
